Read-outs that look alike come from different tables or passages of the source.
Legend:
[1] = TEAC method (Trolox Equivalent Antioxidant Capacity Assay); assay type: biochemical; settings: ratio of gradient to gradient of Trolox; 650 nm, 37 °C, about 90 minutes
In short: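 ABTS radical cation generated with H2O2/HRP in 50 mM citrate pH 4.5. Compounds at six concentrations between 25 and 300 µM mixed with the radical solution at 37 °C, and absorbance loss read at 650 nm until stable (~90 min). TEAC is the slope of absorbance versus nmol compound divided by the Trolox slope.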

[2] = test system: doxorubicin-induced cerebral oxidative stress in mice; experiment: In vivo assay of cerebral oxidative stress induced in mice by doxorubicin (model and oxidized animals); settings: for inhibition in vivo at 50 mg/kg / change in vivo at 50 mg/kg: Mus musculus; for inhibition in vivo at 50 mg/kg: overall, read-out: inhibition of the doxorubicin effect; for change in vivo at 50 mg/kg / mean % effect relative to doxorubicin alone, all parameters (Vehicle): oxidized mice; for mean % effect relative to doxorubicin alone, all parameters (Vehicle): computed as a function of the vehicle
In short: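 Mice (5/arm) dosed 50 mg/kg compound IP days 0–2; one arm also got doxorubicin 16.7 mg/kg IP after the day-0 dose. Brains collected day 3; homogenate (pH 7.4) assayed colorimetrically for oxidized protein, GSH, CAT, SOD, GST, GPx, normalized to protein. Effect: % inhibition of doxorubicin-induced change.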

[3] = test system: healthy animals; experiment: Effect of the compounds on healthy animals (same in vivo assay, cerebral oxidative parameters); parameters: species or system mice; settings: for Average % variation with respect to the vehicle: 50 mg/kg IP for three consecutive days, mean over all parameters, D = doxorubicin alone
In short: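 Mice (10 per group) received compound 50 mg/kg IP on days 0–2, with half also given doxorubicin 16.7 mg/kg IP on day 0; brains were collected on day 3. Brain homogenates (pH 7.4) were assayed colorimetrically for […], protein, oxidized protein, GSH, CAT, SOD, GST and GPx. Result is mean % change across all parameters versus vehicle.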

[4] = ip, compared with its own vehicle
[5] = ip, with respect to the vehicle
[6] = ip, % inhibition relative to change due to doxorubicin alone, vs its own, read-out: Brain/BWi its own
[7] = ip, % inhibition relative to change due to doxorubicin alone, vs its own, read-out: CAT/pr its own
[8] = ip, % inhibition relative to change due to doxorubicin alone, vs its own, read-out: GPX/pr its own
[9] = ip, % inhibition relative to change due to doxorubicin alone, vs its own, read-out: GSH/pr its own
[10] = ip, % inhibition relative to change due to doxorubicin alone, vs its own, read-out: GST/pr its own
[11] = ip, % inhibition relative to change due to doxorubicin alone, vs its own, read-out: Prot. Hmg its own
[12] = ip, % inhibition relative to change due to doxorubicin alone, vs its own, read-out: Prot. Ox/pr its own
[13] = ip, % inhibition relative to change due to doxorubicin alone, vs its own, read-out: SOD/pr its own
[14] = ip, % inhibition relative to change due to doxorubicin alone, vs vehicle, read-out: Brain/BWi vehicle
[15] = ip, % inhibition relative to change due to doxorubicin alone, vs vehicle, read-out: CAT/pr vehicle
[16] = ip, % inhibition relative to change due to doxorubicin alone, vs vehicle, read-out: GPX/pr vehicle
[17] = ip, % inhibition relative to change due to doxorubicin alone, vs vehicle, read-out: GSH/pr vehicle
[18] = ip, % inhibition relative to change due to doxorubicin alone, vs vehicle, read-out: GST/pr vehicle
[19] = ip, % inhibition relative to change due to doxorubicin alone, vs vehicle, read-out: Prot. Hmg vehicle
[20] = ip, % inhibition relative to change due to doxorubicin alone, vs vehicle, read-out: Prot. Ox/pr vehicle
[21] = ip, % inhibition relative to change due to doxorubicin alone, vs vehicle, read-out: SOD/pr vehicle
[22] = 50 mg/kg IP x3 days + doxorubicin, computed as a function of its own (healthy, compound only), read-out: mean % effect relative to doxorubicin alone, all parameters (Its own)
[23] = 50 mg/kg IP x3 days + doxorubicin
[24] = healthy mice, 50 mg/kg IP x3 days, percentage change relative to the vehicle

Structure (SMILES) | TEAC [1] | inhibition in vivo at 50 mg/kg [2, 4] [%] | change in vivo at 50 mg/kg [2, 6] [%] | change in vivo at 50 mg/kg [2, 7] [%] | change in vivo at 50 mg/kg [2, 8] [%] | change in vivo at 50 mg/kg [2, 9] [%] | change in vivo at 50 mg/kg [2, 10] [%] | change in vivo at 50 mg/kg [2, 11] [%] | change in vivo at 50 mg/kg [2, 12] [%] | change in vivo at 50 mg/kg [2, 13] [%] | change in vivo at 50 mg/kg [2, 14] [%] | change in vivo at 50 mg/kg [2, 15] [%] | change in vivo at 50 mg/kg [2, 16] [%] | change in vivo at 50 mg/kg [2, 17] [%] | change in vivo at 50 mg/kg [2, 18] [%] | change in vivo at 50 mg/kg [2, 19] [%] | change in vivo at 50 mg/kg [2, 20] [%] | change in vivo at 50 mg/kg [2, 21] [%] | change in vivo at 50 mg/kg [2, 22] [%] | Prot. Hmg [3, 24] [%] | further results
O=c1oc2ccccc2c(O)c1C1COCCN1O (stereo not drawn) [(10), 4-hydroxy-3-(4-hydroxymorpholin-3-yl)-2H-chromen-2-one] | 1.4 | ~85 | -65.2 | -115 | -117 | -87.2 | -128 | -113 | -45.3 | -18.9 | -73.9 | -34.1 | -103 | -14.4 | -84.6 | -43.4 | -32.6 | 2.1 | -86.2 | 3.1 | inhibition in vivo at 50 mg/kg [2, 5]: ≥ 50%; mean % effect relative to doxorubicin alone, all parameters (Vehicle) [2, 23]: -48.0%; Average % variation with respect to the vehicle ([3]; healthy mice, 50 mg/kg): did not significantly alter the parameters; Average % variation with respect to the vehicle ([3]; healthy mice, listed as V+(10), 50 mg/kg): -4.4%; Brain/BWi ([3]; mouse, in vivo, ip, 50 mg/kg): -5.9%; CAT/pr ([3]; mouse, in vivo, ip, 50 mg/kg): -8.2%; GPX/pr ([3]; mouse, in vivo, ip, 50 mg/kg): -0.8%; GSH/pr ([3]; mouse, in vivo, ip, 50 mg/kg): -3.2%; GST/pr ([3]; mouse, in vivo, ip, 50 mg/kg): -1.2%; Prot. Ox/pr ([3]; mouse, in vivo, ip, 50 mg/kg): 5.4%; SOD/pr ([3]; mouse, in vivo, ip, 50 mg/kg): 2.1%
CC1=NN(c2ccccc2)C(=O)C1C1COCCN1O (stereo not drawn) [(11), 4-(4-hydroxymorpholin-3-yl)-3-methyl-1-phenyl-1H-pyrazol-5(4H)-one] | 2.0 | ~65 | -23.2 | 36.4 | -7.1 | -21.6 | -2.2 | -15.7 | -84.3 | -2.1 | 11.6 | 60.6 | 9.1 | -16 | 1.1 | -2.4 | -69.8 | 18.9 | -64.7 | 1.7 | Average % variation with respect to the vehicle ([3]; healthy mice, 50 mg/kg): did not significantly alter the parameters; Average % variation with respect to the vehicle ([3]; healthy mice, listed as V+(11), 50 mg/kg): -2.0%; Brain/BWi [3, 24]: -2.7%; CAT/pr [3, 24]: -1.6%; GPX/pr [3, 24]: -3.3%; GSH/pr [3, 24]: -1.2%; GST/pr [3, 24]: -0.9%; Prot. Ox/pr [3, 24]: 1.5%; SOD/pr [3, 24]: -33. %
CC1=NN(c2ccccc2)C(=O)C1 [edaravone, reference compound] | 0.9 | 75 | -13 | -120 | -130 | -111 | -126 | -117 | -5.2 | -49 | -44.9 | -100 | -106 | -59.2 | -110 | -102 | -22.7 | -32.9 | -77.2 | 3.7 | inhibition in vivo at 50 mg/kg [2, 5]: ~75%; mean % effect relative to doxorubicin alone, all parameters (Vehicle) [2, 23]: -72.3%; Average % variation with respect to the vehicle ([3]; healthy mice): -2.7%; Brain/BWi [3, 24]: 2.7%; CAT/pr [3, 24]: -5.0%; GPX/pr [3, 24]: -6.7%; GSH/pr [3, 24]: -5.5%; GST/pr [3, 24]: -3.1%; Prot. Ox/pr [3, 24]: -2.3%; SOD/pr [3, 24]: -2.2%

From patent EP2345639A1, “Cyclic hydroxylamine derivatives, their preparation and use as antioxidants” (ABIOGEN PHARMA S.p.A., priority 2009, dated 2011)
